Columns and labels:
[1] = system: E. coli bacteria expressing f18-FimH; experiment: Parallel plate flow chamber, E. coli on surfaces coated with purified components; format: binding; conditions: for Effect of shear on accumulation of E. coli on coated surface (in words): 0.12 to 20 dynes/cm^2
Procedure: Parallel plate flow chamber experiments. Dishes coated with purified components were prepared by incubating 35 mm tissue culture dishes with […] of either 200 mg/ml man-BSA, 200 mg/ml gal-BSA, or a 50,000-fold dilution of polyclonal anti-FimH antiserum in 0.02M bicarbonate buffer for 75 minutes at 37 C, and then washing three times with phosphate-buffered […] with 0.1% BSA (PBS-BSA). The dishes were then inserted into a 2.5 cm×0.25 cm×[…] parallel plate flow chamber (GlycoTech). Bacteria expressing f18-FimH were prepared as described previously (W. E. Thomas, E. Trintchina, M. Forero, V. Vogel, E. V. Sokurenko, Cell 109:913-23 (Jun. 28, 2002)), and brought to 108 cfu/ml in PBS-BSA. 2% alpha-monomannose was added to the PBS-BSA in the studies of surfaces coated with anti-FimH antibodies in order to inhibit any potential mannose-specific interaction between the bacteria and the carbohydrate modifications on the antibodies. This solution of bacteria was flowed through the chamber using a Harvard syringe pump at various shear rates. The bound bacteria were recorded using a Nikon inverted microscope with a 10× phase-contrast objective, a Roper Scientific high-resolution CCD camera, and MetaMorph video acquisition software. The field of view was […] with a resolution of […] per pixel. Even when 400 bacteria bound per field of view, they covered only 1% of the surface area, so that any interactions between bacteria were minimal.
Videos of bound bacteria were analyzed using MetaMorph imaging software. Total bound bacteria in an image appeared as dark spots in phase-contrast and were counted using the automated cell counting package in MetaMorph. The moving bacteria in an image were identified by subtracting an image from another taken one second earlier so that the bacteria that moved after the first image appear as dark spots that can be counted (FIG. 1, FIG. 3A, FIG. 4). This number was compared to the total number originally counted in the first image to give the fraction of bacteria that moved (FIGS. 1B 3C 3D. The movement may represent detachment or rolling. In FIG. 3B where even detached bacteria were visible due to the short shutter speed and low flow rate, bacteria were classified as detached when they moved faster than the hydrodynamic velocity (the shear rate times the bacterial radius of […]), as stationary if they moved less than one pixel (the size of the larger fluctuations in bacterial position over time that occurred with no net movement), and as rolling for anything in between.
Bacterial adhesion and accumulation is the first step in colonizing, and in many cases infecting target tissues. In order to determine the mechanism which allows bacteria to adhere to target tissues under shear, we studied the kinetics by which E. coli bacteria attach and detach from 1Man-coated surfaces, and how the attachment and detachment behavior depends on shear. Recombinant type I fimbriated E. coli bacteria were used that expressed a variant of the adhesion FimH. […] This FimH variant is found in commensal E. coli strains, including the strain F-18 used in our study. Mannosylated bovine serum albumin (1Man-BSA) was adsorbed to glass to prepare chemically controlled model surfaces that expose only 1Man in contrast to using red blood cells that present additional ligands and receptors that might interacting with E. coli. […] A suspension of E. coli cells was passed through a flow chamber coated with 1Man and the binding of bacteria to the surface under various shear conditions was determined. Using a long (2 second) camera shutter time to blur out the free floating cells, we measured the accumulation of stationary bacteria bound to the surface after a period of five minutes at a range of physiologically relevant shear stresses, from 0.12 to 20 dynes/cm^2 (FIG. 6, triangles). […] This is consistent with previous reports of poor binding of this strain to 1Man in the absence of shear.

f-18 fimbriae (FimH) = f-18 fimbriae (FimH) (Escherichia coli, UniProt P08191, N91S/S99N/V48A); conditions: 6 μm PS beads
f-18 fimbriae (FimH), sequence (P08191 22-300 V48A/N91S/S99N): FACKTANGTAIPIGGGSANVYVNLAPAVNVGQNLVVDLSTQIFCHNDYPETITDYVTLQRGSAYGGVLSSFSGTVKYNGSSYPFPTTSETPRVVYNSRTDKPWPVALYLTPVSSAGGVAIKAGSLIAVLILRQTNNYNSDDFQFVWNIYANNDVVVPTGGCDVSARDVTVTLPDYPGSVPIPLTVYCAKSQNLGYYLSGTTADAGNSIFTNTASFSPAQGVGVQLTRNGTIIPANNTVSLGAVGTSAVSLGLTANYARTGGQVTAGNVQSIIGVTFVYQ
f-18 fimbriae (FimH), sequence (P08190 24-167 partner): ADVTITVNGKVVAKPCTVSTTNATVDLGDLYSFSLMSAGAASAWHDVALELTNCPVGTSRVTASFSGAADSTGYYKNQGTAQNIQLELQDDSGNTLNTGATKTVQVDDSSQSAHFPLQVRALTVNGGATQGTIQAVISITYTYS
f-18 fimbriae (FimH), sequence (P08189 21-176 partner): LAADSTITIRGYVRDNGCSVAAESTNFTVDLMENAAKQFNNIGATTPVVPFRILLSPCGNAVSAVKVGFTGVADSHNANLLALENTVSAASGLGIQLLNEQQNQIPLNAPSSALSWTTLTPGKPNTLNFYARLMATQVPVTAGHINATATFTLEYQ
f-18 fimbriae (FimH), sequence (P04128 24-182 partner): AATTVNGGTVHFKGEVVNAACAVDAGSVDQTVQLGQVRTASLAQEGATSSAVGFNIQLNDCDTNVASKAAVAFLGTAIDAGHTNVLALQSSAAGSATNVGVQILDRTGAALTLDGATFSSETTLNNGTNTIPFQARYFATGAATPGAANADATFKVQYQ
Procedure: Physisorption of fimbriae to PS plates: 35 mm Coming (#430165) tissue culture dishes were incubated with purified fimbriae diluted 500 fold in 0.02M bicarbonate buffer at 37° C. for 1 hour, and then washed thrice in PBS with 0.1% BSA (PBS-BSA) to prevent nonspecific adhesion by the beads or RBCs to the dish.
Bead coating by 1Man-BSA: Polystyrene microspheres were prepared by rotating a solution of 50 μl of 2.6% beads mixed with 150 μl of 20-200 μg/ml receptor in 0.02M Bicarbonate buffer for one hour at room temperature. Then they were spun twice and resuspended in fresh PBS-BSA. They were finally diluted down to 0.1% and injected in the chamber.
Parallel plate flow chamber experiments: The coated dishes served as the bottom plate in parallel plate flow chamber from Glycotech #31-0001 (Rockville, Md.) using a silicon rubber gasket 20 mm long, 2.5 mm wide and 0.010 in thick. […] The movement of the beads and RBCs was recorded using an inverted Nikon TE 2000 microscope with a long working distance 10× phase contrast objective by means of a Roper Scientific (Duluth, Ga.) Cascade CCD camera.
Data Analysis: Images of the flow chamber were recorded every 3 seconds for 3 minutes at each shear rate. […] The expected free flowing velocity was calculated by multiplying the shear rate by the radius of the particle, assuming that it is barely touching the surface. […]

[2] = system: guinea pig red blood cells (RBCs); experiment: RBC rosette-formation assay (static agglutination); format: cell-based; conditions: for RBC agglutination under static conditions (in words): static rosette-formation assay
Procedure: (§1) Assays of bacterial adhesion to Man1-BSA and bovine RNAseB immobilized in 96-well plates were carried out as described previously (Sokurenko et al., 1995). Briefly, Man1-BSA and bovine RNAseB were dissolved at 20 μg/ml in 0.02 M bicarbonate buffer, and 100 μl aliquots were incubated in microtiter wells for 1 hr at 37° C. The wells were then washed three times with PBS and quenched with 0.1% BSA in PBS. 3H-thymidine-labeled bacteria were added in 0.1% BSA in PBS and incubated for 40 min at 37° C. without shaking to achieve saturation, and the wells were then washed with PBS. The individual wells were subjected to scintillation counting. The density of bacteria used in all assays was 5×10^7 colony forming units per 100 μl. RBC rosette-formation assay was performed by mixing equal amounts of serially diluted bacterial suspensions (starting from OD540 nm=1.0) and a 1% suspension of RBC in U-bottom microtiter plate wells. On-slide agglutination assays were performed by mixing the suspension of RBC and bacteria on a slide surface followed by rocking at ˜3 s^−1.
(§2) Two commonly used RBC agglutination assays were performed that utilize different shear conditions. […] If no agglutination occurs, RBCs fall into a pellet in the bottom of the well (FIG. 15A), while agglutination results in a rosette of RBCs crosslinked by bacteria. […] After three minutes without rocking, the aggregate loosened (FIG. 15C).

[3] = system: guinea pig red blood cells (RBCs); experiment: Parallel plate flow chamber, RBCs on carpet of FimH-expressing E. coli; format: cell-based; conditions: for Adhesion of RBCs to bacterial carpet under low shear: 0.01 to 0.14 dynes/cm^2
Procedure: Bacteria-coated dishes were prepared as follows: 35 mm tissue culture dishes were incubated with 20 μg/ml RNAse B in 0.02 M bicarbonate buffer for 1 hr at 37° C. and washed three times in PBS with 0.1% BSA (PBS-BSA). The dishes were then incubated with 200 μl PBS-BSA containing 108 colony-forming units of E. coli for 1 hr at 37° C. and washed three times. […] The dishes were then placed under a Glycotech parallel plate flow chamber with a size B gasket (2.5 cm×0.25 cm×250 μm) and sealed with vacuum. A Harvard model #975 pulse-free syringe pump was used to pump fluid through the chamber. The dishes were equilibrated in the flow chamber with PBS-BSA, and a 0.1% solution of RBC was injected into the chamber, allowed to settle onto the bacterial carpet, and washed with PBS-BSA at a shear stress of about 0.5 dynes/cm^2 until all free cells had been removed from the chamber and upstream tubing. The volumetric flow was then reduced to bring the shear stress down to 0.01-0.02 dynes/cm^2, and the shear stress was stepped up 2-fold, with at least 3 min at each shear stress.
RBC movement was recorded using phase contrast microscopy with a 20× objective, a CCD camera, and Metamorph video imaging software by Universal Imaging. Videos were recorded at 1 frame every 2 s for a total of 3 min at each shear rate. The position of each RBC was tracked at 6 s intervals in these videos using Metamorph's point tracking plug-in. The average velocity for each cell was calculated from these positions over the 3 min at each shear. These were then averaged for the average velocity of all cells. Some cells detached completely at the low shear stress and moved at the fluid velocity. (A cell moving in flow near a surface has velocity approximately equal to the cell radius, 5 μm, times the shear rate, assuming it is almost touching the surface.) Since these times reflected movement without any bond detachment, these time intervals were removed from the analysis for each cell. We only analyzed cells that were attached and in the field of view at the start of the 3 min time frame. The off-rate of RBCs was calculated from the X, the percent of original RBCs remaining bound at time t, using the formula k=1/t·ln(1/X), and using t=3 min. This assumes that detachment is independent and governed by a single rate constant, and X=e−kt, so that the number of remaining RBCs decays exponentially.
To establish whether the differential pattern of RBC agglutination observed in example 1 was due to a distinct ability of shear to enhance adhesion of type I fimbriated bacteria to RBCs, we studied the adhesion of low- and high-Man1 binding variants to RBCs under well-defined shear conditions. Previous studies on the effect of shear on selectin or von Willebrand factor-mediated adhesion of lymphocytes and platelets have used flow chambers (Finger et al., 1996; Marchese et al., 1999). Using a similar approach, we immobilized bacteria expressing either FimH-f18 or FimH-j96 on the surface of a flow chamber coated with bovine 3Man-RNaseB, a model trimannose-containing substrate to which both FimH variants bind with equal affinity (see Table 1A). In brief, RBCs were allowed to bind to the bacterial carpet, and the unbound cells were removed by rinsing under moderate fluid flow shear (0.28 to 0.90 dynes/cm^2). RBCs that remained attached to the bacterial carpet were then subjected to various shear conditions.

[4] = system: guinea pig red blood cells (RBCs); experiment: On-slide RBC agglutination with rocking (dynamic); format: cell-based
Procedure: as §1, §2

[5] = switch from 5 to 0.12 dynes/cm^2

1Man-BSA: monomannose (1Man) conjugated to Bovine Serum Albumin
Effect of shear on accumulation of E. coli on coated surface (in words) [1]: shear enhances the adhesion
Number of initial attachments in the field of view ([1]; 0.5 dynes/cm^2): 102 attachments per minute
Number of initial attachments in the field of view ([1]; 3.6 dynes/cm^2): 64 attachments per minute
Increase of E. coli accumulation on coated surface ([1]; 5 dynes/cm^2): 100 -fold
Number of initial attachments in the field of view ([1]; 7 dynes/cm^2): 32 attachments per minute
Rolling velocity of surface-bound bacteria ([1]; at the peak of the accumulation curve): about 30 mm per second
Accumulation of E. coli on coated surface, fold higher binding ([1]; peaking at around 3-5 dynes/cm^2, five minutes): over 100 -fold
First-order rate constant for the switch from rolling to detached [1, 5]: 3 s⁻¹
First-order rate constant for the switch from stationary to rolling [1, 5]: 0.09 s⁻¹
Binding of coated beads to carpet of fimbriae (in words) (f-18 fimbriae (FimH)): shear-activated binding
Shear stress at which bead velocity starts to drop (f-18 fimbriae (FimH)): 0.03 pN/μm^2

COC1O[C@H](CO)[C@@H](O)[C@H](O)[C@@H]1O (stereo partly drawn) [α-methyl-mannoside, reference compound]
Inhibition of RBC agglutination by α-methyl-mannoside ([2]; 50 mM, in all assays (static and dynamic)): inhibitable
Inhibition of original attachment of RBCs to bacteria ([3]; 50 mM): could be inhibited

FimH-f18: low-Man1 binding natural FimH variant from intestinal E. coli strain F18, expressed on type I fimbriated recombinant bacteria
RBC agglutination under static conditions (in words) [2]: unable to mediate RBC agglutination
Time after rocking was stopped within which aggregates began to dissipate ([4]; after rocking was stopped): ≤ 3 min
RBC aggregate formation in rocking assay with diluted bacteria ([4]; bacteria 10-fold diluted): still formed aggregates
Off-rate of RBCs from bacterial carpet ([3]; 0.14 dynes/cm^2): 0.002 min⁻¹
Off-rate of RBCs from bacterial carpet ([3]; 0.2 to 0.4 dynes/cm^2, on average): 0.1 min⁻¹
Off-rate of RBCs from bacterial carpet ([3]; 0.7 dynes/cm^2): 0.03 min⁻¹
Adhesion of RBCs to bacterial carpet under low shear [3]: bind weakly
Adhesion of RBCs to bacterial carpet under moderate shear ([3]; moderate shear, 0.28 to 0.90 dynes/cm^2): firmly adhered
Off-rate of RBCs from bacterial carpet ([3]; shear stresses above 0.2 dynes/cm^2): too low to measure

FimH-j96: natural FimH variant of uropathogenic E. coli strain J96; differs from FimH-f18 by A27V, S70N, N78S
Dilution of bacteria up to which RBC rosettes formed ([2]; static conditions): ≤ 8 -fold dilution
RBC agglutination under static conditions (in words) [2]: able to agglutinate RBC in static conditions
Stability of RBC aggregates after rocking was halted ([4]; after rocking was halted): remained stable indefinitely long
Time for RBCs to form tight clumps in dynamic rocking assay ([4]; highest concentration of bacteria (10^9 bacteria/ml)): 35 ± 2 s
Adhesion of RBCs to bacterial carpet under low shear [3]: adhered firmly

Q32L: single Q32L mutation, effect stated in the FimH-j96 background
RBC agglutination under static conditions (in words) [2]: eliminated the ability of the bacteria to agglutinate RBCs under static conditions

S124A: single S124A mutation, effect stated in the FimH-j96 background
RBC agglutination under static conditions (in words) [2]: eliminated the ability of the bacteria to agglutinate RBCs under static conditions

galactosylated BSA: negative control galactosylated BSA; galactose is not specifically recognized by FimH
Effect of shear on accumulation of E. coli on coated surface (in words) [1]: essentially no bacteria bound at any shear

From patent US20090325259A1, “USE OF ADHESION MOLECULES AS BOND STRESS-ENHANCED NANOSCALE BINDING SWITCHES” (priority 2002, published 2009)
